ChEMBL document CHEMBL1126300, “Quinoline antifolate thymidylate synthase inhibitors: variation of the C2- and C4-substituents” (J Med Chem, 1992)

What was measured:
Thymidylate synthase = Thymidylate synthase (Mus musculus, UniProt P07607); assay: In vitro inhibitory activity against thymidylate synthase from L1210 mouse leukemia cells; type: cell-based
L1210 = assay: In vitro inhibition of L1210 mouse leukemia cell growth in culture; type: functional, cell-based
WIL2 = assay: Inhibition of human derived cell line W1-L2 cell proliferation; type: functional, cell-based

Thymidylate synthase, sequence (P07607 whole entry): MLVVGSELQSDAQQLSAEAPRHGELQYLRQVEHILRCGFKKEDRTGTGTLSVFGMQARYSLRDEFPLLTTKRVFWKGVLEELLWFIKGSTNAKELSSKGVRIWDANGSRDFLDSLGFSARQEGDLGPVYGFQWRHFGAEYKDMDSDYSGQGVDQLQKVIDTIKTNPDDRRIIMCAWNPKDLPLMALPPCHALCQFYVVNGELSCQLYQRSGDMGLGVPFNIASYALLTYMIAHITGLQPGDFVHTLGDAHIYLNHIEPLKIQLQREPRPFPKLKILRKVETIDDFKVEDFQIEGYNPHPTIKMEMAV

| Structure (SMILES) | IC50 (Thymidylate synthase) | IC50 (L1210) | IC50 (WIL2) |
| --- | --- | --- | --- |
| C#CCN(Cc1ccc2nc(Cl)ccc2c1)c1ccc(C(=O)N[C@@H](CCC(=O)O)C(=O)O)cc1 | 2600 nM | > 100000 nM |  |
| C#CCN(Cc1ccc2nc(C)cc(O)c2c1)c1ccc(C(=O)N[C@@H](CCC(=O)O)C(=O)O)cc1 | 6300 nM | > 100000 nM |  |
| C#CCN(Cc1ccc2nc(NC(C)=O)cc(Cl)c2c1)c1ccc(C(=O)N[C@@H](CCC(=O)O)C(=O)O)cc1 | 1200 nM | > 100000 nM |  |
| C#CCN(Cc1ccc2nc(N)cc(Cl)c2c1)c1ccc(C(=O)N[C@@H](CCC(=O)O)C(=O)O)cc1 | 96 nM | 11000 nM |  |
| C#CCN(Cc1ccc2nc(C)cc(C)c2c1)c1ccc(C(=O)N[C@@H](CCC(=O)O)C(=O)O)cc1 |  | > 100000 nM |  |
| C#CCN(Cc1ccc2nc(OC)cc(Cl)c2c1)c1ccc(C(=O)N[C@@H](CCC(=O)O)C(=O)O)cc1 | 9000 nM | > 100000 nM |  |
| CCN(Cc1ccc2nc(CO)cc(Cl)c2c1)c1ccc(C(=O)N[C@@H](CCC(=O)O)C(=O)O)cc1 | 1050 nM | > 100000 nM |  |
| C#CCN(Cc1ccc2nc(C)cc(Br)c2c1)c1ccc(C(=O)N[C@@H](CCC(=O)O)C(=O)O)cc1 | 220 nM | 14000 nM |  |
| C#CCN(Cc1ccc2[nH]c(N)nc(=O)c2c1)c1ccc(C(=O)N[C@@H](CCC(=O)O)C(=O)O)cc1 |  |  | 440 nM |
| C#CCN(Cc1ccc2nc(CC)cc(Cl)c2c1)c1ccc(C(=O)N[C@@H](CCC(=O)O)C(=O)O)cc1 | 990 nM | > 100000 nM |  |
| C#CCN(Cc1ccc2nc(C(=O)O)cc(Cl)c2c1)c1ccc(C(=O)N[C@@H](CCC(=O)O)C(=O)O)cc1 | 31000 nM | > 100000 nM |  |
| C#CCN(Cc1ccc2nc(C)ccc2c1)c1ccc(C(=O)N[C@@H](CCC(=O)O)C(=O)O)cc1 | 7900 nM | > 100000 nM |  |
| C#CCN(Cc1ccc2nc(N)cc(Cl)c2c1)c1ccc(C(=O)N[C@@H](CCC(=O)O)C(=O)O)c(F)c1 | 48 nM | 2900 nM |  |
| C#CCN(Cc1ccc2nc(C)cc(SC)c2c1)c1ccc(C(=O)N[C@@H](CCC(=O)O)C(=O)O)cc1 | 8900 nM | 100000 nM |  |
| C#CCN(Cc1ccc2nc(Cl)cc(Cl)c2c1)c1ccc(C(=O)N[C@@H](CCC(=O)O)C(=O)O)cc1 |  | 8000 nM |  |
| C#CCN(Cc1ccc2nc(C)cc(Cl)c2c1)c1ccc(C(=O)N[C@@H](CCC(=O)O)C(=O)O)cc1 | 250 nM | 8000 nM |  |

| Structure (SMILES) | IC50 (Thymidylate synthase) | IC50 (L1210) | IC50 (WIL2) |
| --- | --- | --- | --- |
| C#CCN(Cc1ccc2nc(CF)cc(Cl)c2c1)c1ccc(C(=O)N[C@@H](CCC(=O)O)C(=O)O)cc1 | 620 nM | > 100000 nM |  |
| CCN(Cc1ccc2nc(N)cc(OC)c2c1)c1ccc(C(=O)N[C@@H](CCC(=O)O)C(=O)O)cc1 | 1900 nM | 100000 nM |  |
| C#CCN(Cc1ccc2nc(N)cc(C)c2c1)c1ccc(C(=O)N[C@@H](CCC(=O)O)C(=O)O)cc1 | 350 nM | 4000 nM |  |
| C#CCN(Cc1ccc2nc(C)cc(OC)c2c1)c1ccc(C(=O)N[C@@H](CCC(=O)O)C(=O)O)cc1 | 6000 nM | > 100000 nM |  |
| C#CCN(Cc1ccc2nc(C)cc(Br)c2c1)c1ccc(C(=O)N[C@@H](CCC(=O)O)C(=O)O)c(F)c1 | 96 nM | 1000 nM |  |
| C#CCN(Cc1ccc2nc(Cl)cc(Cl)c2c1)c1ccc(C(=O)N[C@@H](CCC(=O)O)C(=O)O)c(F)c1 | 23 nM | 1000 nM |  |
| Cc1cc(Cl)c2cc(CN(C)c3ccc(C(=O)N[C@@H](CCC(=O)O)C(=O)O)cc3)ccc2n1 | 2300 nM | 24000 nM |  |
| CCN(Cc1ccc2nccc(Cl)c2c1)c1ccc(C(=O)N[C@@H](CCC(=O)O)C(=O)O)cc1 | 1130 nM | 30000 nM |  |
| C#CCN(Cc1ccc2nc(Cl)cc(OC)c2c1)c1ccc(C(=O)N[C@@H](CCC(=O)O)C(=O)O)cc1 | 150 nM |  |  |
| Cc1cc(Cl)c2cc(CNc3ccc(C(=O)N[C@@H](CCC(=O)O)C(=O)O)cc3)ccc2n1 | 38000 nM | > 100000 nM |  |
| C#CCN(Cc1ccc2nc(C)cc(C#N)c2c1)c1ccc(C(=O)N[C@@H](CCC(=O)O)C(=O)O)cc1 | 1500 nM | 75000 nM |  |
| C#CCN(Cc1ccc2nc(Cl)cc(C)c2c1)c1ccc(C(=O)N[C@@H](CCC(=O)O)C(=O)O)cc1 | 120 nM | > 100000 nM |  |
| C#CCN(Cc1ccc2nc(C)cc(Cl)c2c1)c1ccc(C(=O)N[C@@H](CCC(=O)O)C(=O)O)c(F)c1 | 66 nM | 420 nM |  |
| CCN(Cc1ccc2nc(C)cc(Cl)c2c1)c1ccc(C(=O)N[C@@H](CCC(=O)O)C(=O)O)cc1 | 740 nM | 23000 nM |  |
| C#CCN(Cc1ccc2nc(C(N)=O)cc(Cl)c2c1)c1ccc(C(=O)N[C@@H](CCC(=O)O)C(=O)O)cc1 | 1900 nM | > 100000 nM |  |
| C#CCN(Cc1ccc2nc(C(F)(F)F)cc(Cl)c2c1)c1ccc(C(=O)N[C@@H](CCC(=O)O)C(=O)O)cc1 | 150 nM | > 100000 nM |  |
